Measured values taken from patent publication US20240307373A1, “METHODS OF USE AND COMPOSITIONS OF BISBENZYLISOQUINOLINES FOR THE TREATMENT OF MALIGNANCIES” (priority 2023, published 2024).
Where “and” joins values, the source holds several entries; their conditions need not be identical. Identical values can stand only once.

Columns and labels:
[1] = target: calmodulin (CaM) (Homo sapiens, UniProt P0DP23); conditions: Ma 2013; cited from earlier work
[2] = test system: β-catenin; experiment: β-catenin level in K562 cell extracts by western blot; type: cell-based, human
Method: Levels of β-catenin and β-actin proteins in untreated and tetrandrine-treated K562 cell lines by Western blot.
Antibodies for Western Blot analysis against β-catenin and β-actin were purchased from Santa Cruz Biotechnology (Santa Cruz, CA) Protein lysates were prepared by lysing cells in RIPA buffer and immunoprecipitation.
Briefly, the method to quantitate β-catenin protein by western blot was as follows: Extracts of K562 cells (untreated and treated with various concentrations of tetrandrine) were concentrated to 0.4 ml using Centricon-3 column to yield a protein concentration of approximately 2 mg/ml. Samples were mixed with 5X Laemmli buffer and loaded on 8-16% Tris-Glycine gradient gel, then polyacrylamide gel electrophoresis (PAGE) was run at 85 volts for 100 minutes at 6° C. and proteins were transferred on PVDF membrane at 70 Volts for 85 minutes at 8° C. Membrane was blocked with 5% milk in Tris-buffered Saline containing 0.1% TW-20 (TBST). Membrane was incubated with primary antibody for 18 hours at 4° C. followed by 3 washes, 5 minutes each, with TBST and incubated with secondary antibody in TBST for 2 hours at 25° C. […] Protein bands in WB images were quantitated using Molecular Imaging software pack MIS-4.0 software and tabulated in Excel spreadsheet.

[3] = test system: bcr-abl transcripts; experiment: qPCR assay for bcr-abl and abl transcripts in primary and secondary colonies; type: cell-based, human; conditions: 10 μM, number of colonies
Method: After 14-16 days in culture, individual colonies were plucked from the solvent control and tetrandrine at 10 μM test condition into 75 μL of buffer RLT (Qiagen). Secondary replated colonies were collected and washed with 2 mL of 1× PBS, frozen at −80° C. and then lysed with 75 μL of buffer RLT (Qiagen). RNA was isolated using the Rneasy Micro kit according to the manufacture's instructions. Because the cell numbers in each colony were low, 20 ng of carrier RNA was included in each reaction to promote a better RNA yield. After elution, the entire isolation was subjected to a cDNA conversion using the high-capacity cDNA conversion kit (Life Technologies).
Using cDNA derived from both primary and secondary replated colonies, qPCR assay was used to determine whether colonies were positive for ber-abl transcripts. Primers and probes were designed based on the publication from Luthra, et.al. and are designed to anneal to ber-abl (target) and abl (endogenous control) cDNA. Each target was assayed in duplicated in a 20 μL reaction volume. Samples were denatured at 95° C. for 10 min and then amplified for 40 rounds of 95° C. for 15 s and 60° C. for 60 s.
To determine whether a colony was normal (bcr-abl negative and abl positive) or diseased (bcr-abl and abl positive), a TaqMan®-based qPCR test was used. In order to score the colonies positive or negative, the following scoring strategy was performed. All colonies were assayed in duplicate for each target. If a singleton reaction yielded a Ct then the reaction scored a 1. If no Ct was recorded, a score of 0 was given. From here, we used a logic test to score the colonies into four different categories: bcr-abl and abl, abl only, bcr-abl only or both negative. In order to be placed in a category, a colony must score a 1 in both reactions. However, if a colony only scored a 1 for one out of the two reactions, this colony was removed from the analysis. If a colony scored a 1 for each reaction (both bcr-abl and abl) the colony was placed into the ber-abl and abl category, signifying it as a diseased colony. Alternatively, if a colony scored a 1 in only both of the bcr-abl reactions or a 1 in only both the abl reactions, the colony was placed in the bcr-abl only or abl only category, respectively. If the colony scored a 0 for both targets (bcr-abl and abl) then the colony was placed in the both negative category.

[4] = test system: human breast, colon carcinoma, and hepatoma cell lines; conditions: read-out: IC50 range; cited from earlier work
[5] = target: P-glycoprotein (P-gp) (Homo sapiens, UniProt P08183); conditions: cited from earlier work
Sequence of P-glycoprotein (P-gp) (P08183 whole entry): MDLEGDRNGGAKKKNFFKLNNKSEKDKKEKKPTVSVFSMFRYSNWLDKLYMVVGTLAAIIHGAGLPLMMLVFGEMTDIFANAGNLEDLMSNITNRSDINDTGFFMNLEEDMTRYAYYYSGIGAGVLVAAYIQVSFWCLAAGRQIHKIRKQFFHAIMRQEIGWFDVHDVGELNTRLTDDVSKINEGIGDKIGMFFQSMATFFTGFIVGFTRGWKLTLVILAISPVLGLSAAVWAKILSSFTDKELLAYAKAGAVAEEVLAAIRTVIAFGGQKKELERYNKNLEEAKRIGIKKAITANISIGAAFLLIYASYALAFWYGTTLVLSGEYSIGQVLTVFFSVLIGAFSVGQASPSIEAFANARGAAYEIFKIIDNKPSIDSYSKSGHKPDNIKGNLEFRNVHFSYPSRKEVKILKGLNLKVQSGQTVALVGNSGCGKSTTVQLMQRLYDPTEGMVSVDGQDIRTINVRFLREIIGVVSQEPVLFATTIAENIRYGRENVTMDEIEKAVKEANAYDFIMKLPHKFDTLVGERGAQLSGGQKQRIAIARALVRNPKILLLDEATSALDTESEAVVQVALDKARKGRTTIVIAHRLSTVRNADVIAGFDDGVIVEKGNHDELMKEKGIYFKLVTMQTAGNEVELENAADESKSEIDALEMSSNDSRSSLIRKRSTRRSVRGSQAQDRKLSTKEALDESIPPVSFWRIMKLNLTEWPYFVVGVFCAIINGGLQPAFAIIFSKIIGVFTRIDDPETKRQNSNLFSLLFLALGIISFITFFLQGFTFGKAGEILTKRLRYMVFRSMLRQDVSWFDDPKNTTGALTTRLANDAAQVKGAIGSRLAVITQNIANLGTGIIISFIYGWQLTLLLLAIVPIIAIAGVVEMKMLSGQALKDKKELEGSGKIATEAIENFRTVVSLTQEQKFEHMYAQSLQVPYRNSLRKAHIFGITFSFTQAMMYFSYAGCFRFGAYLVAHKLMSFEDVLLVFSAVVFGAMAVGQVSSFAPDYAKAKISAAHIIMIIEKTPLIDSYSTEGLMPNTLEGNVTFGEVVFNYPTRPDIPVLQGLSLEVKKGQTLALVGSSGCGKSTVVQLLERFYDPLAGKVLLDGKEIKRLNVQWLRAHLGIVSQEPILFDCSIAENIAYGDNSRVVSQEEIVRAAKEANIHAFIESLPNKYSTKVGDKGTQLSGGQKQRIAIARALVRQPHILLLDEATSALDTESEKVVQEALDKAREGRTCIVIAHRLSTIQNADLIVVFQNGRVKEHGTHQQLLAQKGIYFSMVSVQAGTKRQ

[6] = target: T1, CAMKII gamma (Homo sapiens, UniProt Q13555); experiment: CAMKII gamma kinase activity (ADP Glo); type: biochemical
T1 construct: purchased Promega V3531
T1 sequence (Q13555 whole entry): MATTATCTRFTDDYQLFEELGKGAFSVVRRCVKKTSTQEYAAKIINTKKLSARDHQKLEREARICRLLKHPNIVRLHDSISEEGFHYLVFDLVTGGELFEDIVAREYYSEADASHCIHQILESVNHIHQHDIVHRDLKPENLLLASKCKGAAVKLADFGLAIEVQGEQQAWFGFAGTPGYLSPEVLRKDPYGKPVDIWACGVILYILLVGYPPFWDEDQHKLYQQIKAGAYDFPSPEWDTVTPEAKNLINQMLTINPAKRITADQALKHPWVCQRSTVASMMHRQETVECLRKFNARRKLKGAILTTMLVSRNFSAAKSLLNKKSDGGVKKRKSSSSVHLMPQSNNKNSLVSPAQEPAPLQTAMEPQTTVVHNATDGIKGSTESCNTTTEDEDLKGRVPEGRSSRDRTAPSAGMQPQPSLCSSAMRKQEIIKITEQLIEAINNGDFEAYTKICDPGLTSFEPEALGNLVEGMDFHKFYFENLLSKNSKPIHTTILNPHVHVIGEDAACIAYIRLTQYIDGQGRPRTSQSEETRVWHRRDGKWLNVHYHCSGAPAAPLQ
Method: An enzymatic study was conducted to evaluate the inhibition of CAMKII gamma by ES-3000 (Tetrandrine). CAMKII gamma kinase activity was measured using […] purchased from Promega following the Promega protocol. CAMKII enzyme system purchased from Promega (V3531). ADP Glo was used for detection. Assay optimized for linearity of protein and time. Conditions for inhibitor screening 25 ng CAMKII, 20 min. incubations, inhibitor or DMSO (5%) at RT in 20 uL total volume. Inhibitors, ATP (10 or 50 uM), substrates and buffer added to tubes and reactions started with enzyme. […] Reactions terminated at 20 min. by adding ADP Glo reaction following manufactures instructions. All reactions were done in duplicate. Calculations of percent (%) inhibition determined by dividing the mean activity at each condition by the mean of the DMSO control times 100.

[7] = test system: human CML bone marrow-derived cells; experiment: Replating assay (secondary clonal growth of plucked CFU-GM colonies); type: cell-based
Method: Following enumeration of the erythroid and myeloid progenitors, individual CFU-GM colonies were plucked from the matrix and diluted in 20 μL of IMDM+10% FBS. The colony was dispersed in this medium by gentle pipetting. This cellular mixture was then added to a well of a 96 well plate containing 180 μL of the ColonyGel medium described above. […] Both the number of wells which supported clonal growth as well as colony number per well were recorded.

[8] = target: hERG (Homo sapiens, UniProt Q12809); experiment: hERG inhibition, IonWorks HT electrophysiology in CHO cells stably transfected with hERG
Sequence of hERG (Q12809 whole entry): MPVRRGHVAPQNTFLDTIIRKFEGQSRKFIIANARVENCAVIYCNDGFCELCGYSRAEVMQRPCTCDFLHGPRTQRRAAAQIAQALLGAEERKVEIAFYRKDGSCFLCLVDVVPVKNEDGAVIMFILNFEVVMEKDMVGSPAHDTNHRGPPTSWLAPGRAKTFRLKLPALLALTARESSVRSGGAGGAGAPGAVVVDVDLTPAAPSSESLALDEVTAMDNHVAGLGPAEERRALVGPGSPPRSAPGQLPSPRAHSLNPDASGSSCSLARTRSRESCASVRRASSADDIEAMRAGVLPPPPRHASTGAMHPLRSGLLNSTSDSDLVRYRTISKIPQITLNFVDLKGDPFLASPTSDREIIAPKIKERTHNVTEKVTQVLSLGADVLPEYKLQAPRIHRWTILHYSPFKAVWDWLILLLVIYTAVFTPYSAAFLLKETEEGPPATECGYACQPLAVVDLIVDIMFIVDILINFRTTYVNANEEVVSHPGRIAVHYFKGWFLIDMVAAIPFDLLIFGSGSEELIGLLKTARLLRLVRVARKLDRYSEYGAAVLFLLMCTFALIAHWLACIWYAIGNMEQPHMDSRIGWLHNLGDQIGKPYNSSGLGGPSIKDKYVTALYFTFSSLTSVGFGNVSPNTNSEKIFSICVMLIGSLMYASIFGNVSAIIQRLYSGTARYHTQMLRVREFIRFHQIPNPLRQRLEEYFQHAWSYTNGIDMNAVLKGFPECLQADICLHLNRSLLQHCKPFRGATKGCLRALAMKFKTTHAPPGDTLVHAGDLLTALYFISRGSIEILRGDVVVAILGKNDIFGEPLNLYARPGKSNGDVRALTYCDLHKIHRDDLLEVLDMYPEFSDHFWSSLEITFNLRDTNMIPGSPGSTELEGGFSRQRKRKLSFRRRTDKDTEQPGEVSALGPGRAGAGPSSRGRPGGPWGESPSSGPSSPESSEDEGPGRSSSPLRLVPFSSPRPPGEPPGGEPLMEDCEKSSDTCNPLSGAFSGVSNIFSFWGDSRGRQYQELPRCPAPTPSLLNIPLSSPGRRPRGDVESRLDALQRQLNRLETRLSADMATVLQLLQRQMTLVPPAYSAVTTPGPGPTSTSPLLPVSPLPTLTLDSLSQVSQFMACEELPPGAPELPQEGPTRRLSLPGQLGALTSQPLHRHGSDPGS

[9] = test system: human CML bone marrow-derived cells; experiment: Colony forming cell (CFC) assay on CML patient bone marrow cells; conditions: colony number, methylcellulose-based medium, 14-16 days
Method: Clonogenic progenitors were set up using buman CML bone marrow-derived cells in the methylcellulose-based media formulation described above. Test articles were added to the medium to give final concentrations as described above. Standard cultures containing IMDM+10% FBS as well as solvent control cultures containing DMSO were also initiated. Following addition of the test compounds and cells, the tubes were vortexed to ensure equal distribution of compound and cells throughout the matrix. The cultures were set up in triplicate at 0.1×10^6 cells per culture (lot #BBM1000-E1110025705111110G4) for each control and each compound concentration. The cultures were placed in a humidified incubator (37° C., 5% CO2). Following 14-16 days in culture, the colonies were assessed and scored by trained personnel.
Human bone marrow light-density cells derived from CML patient bone marrow (Conversant Bio, Alabama), were stored in the gaseous phase of liquid nitrogen until required. On the day of the experiment, the cells were thawed rapidly, the contents of the vial were diluted in 10 mL of Iscove's Modified Dulbecco's Medium containing 10% fetal bovine serum (IMDM+10% FBS) and washed by centrifugation (approximately 1200 r.p.m. for 10 minutes, room temperature). The supernatant was discarded, and the cell pellets were resuspended in a known volume of IMDM+10% FBS. A cell count (3% glacial acetic acid) and viability assessment (trypan blue exclusion test) […] Tetrandrine (10 μM) for 14 days. After treatment, primary and secondary colonies were grown and analyzed by qPCR to determine BCR-ABL or ABL only cells.
Human erythroid (CFU-E and BFU-E) and myeloid (CFU-GM) colony enumeration were performed by trained personnel. In addition, the distribution of colony types as well as general colony and cellular morphology were analyzed. […] For statistical analysis, colony numbers in compound-treated cultures were compared to the solvent control cultures.

[10] = test system: leukemic cells and leukemic stem cells; experiment: BCR-ABL induced CML mouse model (bone marrow transplantation); type: in vivo, C57BL/6 mice
Excerpt: The method is as follows: 20 C57BL/6 mice were used as donors for bone marrow transduction. They were primed by intravenous injection with 5-fluorouracil four days before collecting cells. Bone marrow cells were harvested from femurs and tibias. Bone marrow cells were infected with a retrovirus containing MSCV-BCR-ABL-IRES-GFP twice 60 recipient mice were lethally irradiated by two doses of 550cGy before bone marrow transplantation by intravenous injection with 500,000 cells/mouse.
In an in vivo model, the effectiveness of Tetrandrine was tested on CML stem cells. The objective of the study was to determine the survival of leukemic cells and leukemic stem cells in response to the treatment with Tetrandrine. After priming donor C57BL/6 (B6) mice with intravenous injections of 5-fluorouracil for four days, bone marrow cells were harvested from femurs and tibia, then transfected twice with retrovirus containing MSCV-BCR-ABL-IRES-GFP. Recipient mice were lethally irradiated by two doses of 550 cGy before bone marrow transplantation by intravenous injection with 5×10^5 cells/mouse. Blood from recipient mice was tested for disease induction one week after transduction by FACS analysis for GFP (FIG. 7A). […] Treatments started on day 8 after bone marrow transplantation (FIG. 7B).

[11] = test system: HCT116 cells; conditions: cited from earlier work
[12] = Tetrandrine 150 mg/kg orally 1×/day versus Imatinib 100 mg/kg 2×/day, treatment from day 8 after bone marrow transplantation

## 6,6′,7,12-tetramethoxy-2,2′-dimethyl-berbaman [ES-3000]
[1]
  binding to calmodulin (CaM): bind competitively to calmodulin
[2]; K562 cells treated with 20 and 40 uM
  β-catenin band: absent
[2]; K562 cells, 0 to 40 uM, 24 hours, western blot
  β-catenin level: lowers the β-catenin level in K562 cells in a dose dependent manner
[3]; Primary colonies
  abl only: 1
  bcr-abl only: 1
  both negative: 4
[3]; Secondary colonies
  abl only: 1
  bcr-abl only: 0
  both negative: 9
[4]
  IC50: 1.5 to 10.4 µM
[5]; Susa 2010
  P-gp substrate: not a substrate of P-gp
[5]
  reversal of P-glycoprotein-mediated drug resistance: potent and specific activity
[6]; 30 uM inhibitor, 10 uM ATP
  mean (units): 3.09 units
  units (duplicate reactions): 2.75 units and 3.43 units
[6]; 30 uM inhibitor, 50 uM ATP
  mean (units): 10.55 units
  units (duplicate reactions): 10.4 units and 10.7 units
[6]; 100 uM inhibitor, 10 uM ATP
  mean (units): 2.87 units
  units (duplicate reactions): 2.5 units and 3.24 units
[6]; 100 uM inhibitor, 50 uM ATP
  mean (units): 7.955 units
  units (duplicate reactions): 8.81 units and 7.1 units
[6]; 250 uM inhibitor, 10 uM ATP
  mean (units): 0.41 units
  units (duplicate reactions): 0.34 units and 0.48 units
[7]; colonies plucked from original cultures with ES-3000 @ 10 μM, 96 well plate, 14 days
  Repeating Colony Count (secondary colonies per well): 1
[7]; original cultures with ES-3000 @ 10 μM
  average CFC per well: three
[8]; subjects, interpretation of hERG IC50
  plasma levels at which QT prolongation might be expected: above 249 ng/ml
[8]; utilizing Cmax from previous human clinical experience (Oldham 1998, Oldham 2000)
  safety for cardiac conduction-related toxicity (hERG IC50 versus Cmax): 13 fold
[9]; 0.1 μM
  BFU-E: 22 ± 4
  CFU-E: 11 ± 1
  CFU-GM: 55 ± 5
  Total Erythroid: 33 ± 3
[9]; 1 μM
  BFU-E: 22 ± 4
  CFU-E: 10 ± 2
  CFU-GM: 54 ± 2
  Total Erythroid: 33 ± 3
[9]; 3 μM
  BFU-E: 14 ± 3
  CFU-E: 9 ± 2
  CFU-GM: 52 ± 5
  Total Erythroid: 23 ± 2
[9]; 10 μM
  CFU-GM: 26 ± 2
[10]; Tetrandrine 150 mg/kg in 0.1N HCl, 1 time per day
  spleen weight: reduces spleen weight
[10]; [12]
  development of circulating leukemic cells: superior to Imatinib
  development of leukemic stem cells: superior to Imatinib
[11]; HCT116 (He 2011)
  anticancer activity in combination with 5-FU: synergistic anticancer activity with 5-FU
[11]; HCT116 cells (He 2011)
  migration and invasion capabilities: reduced migration and invasion capabilities
